Assay results taken from ChEMBL document CHEMBL6153050, “Repurposing FDA-approved drugs to target G-quadruplexes in breast cancer” (Eur J Med Chem, 2025).
Calls of active or inactive are those of the source. No cut-off for these calls is given here.

Key:
Quadruplex DNA [1] = conditions: time 10.0 min
Quadruplex RNA [2] = conditions: time 10.0 min
Quadruplex DNA [3] = conditions: time 10.0 min; remark: listed apart in the source
MCF7 [4] = assay: Cytotoxicity against human MCF7 cells assessed as reduction in cell viability at 0.625 to 20 uM incubated for 6 days by SRB assay; format: functional, cell-based; conditions: dose 0.625-20 µM, time 6.0 day
SK-BR-3 [5] = assay: Cytotoxicity against human SK-BR-3 cells assessed as reduction in cell viability at 0.625 to 20 uM incubated for 6 days by SRB assay; format: functional, cell-based; conditions: dose 0.625-20 µM, time 6.0 day
Quadruplex DNA [6] = conditions: time 10.0 min; remark: listed apart in the source
Quadruplex DNA [7] = conditions: time 10.0 min; remark: listed apart in the source
Quadruplex RNA [8] = conditions: time 10.0 min; remark: listed apart in the source
Quadruplex DNA [9] = assay: Binding affinity to HER2 G4 quadruplex DNA (GGAGAAGGAGGAGGTGGAGGAGGAGGG) (unknown origin) assessed as change in entropy by ITC analysis; format: nucleic-acid assay
Quadruplex DNA [10] = assay: Binding affinity to c-Myc G4 quadruplex DNA (TGAGGGTGGGTAGGGTGGGTAA) (unknown origin) assessed as Gibbs free energy by ITC analysis; format: nucleic-acid assay
SK-BR-3 [11] = assay: Cytotoxicity against human SK-BR-3 cells assessed as reduction in cell viability incubated for 6 days by SRB assay; format: functional, cell-based; conditions: for IC25: time 6 day
MDA-MB-231 [12] = assay: Cytotoxicity against human MDA-MB-231 cells assessed as reduction in cell viability incubated for 6 days by SRB assay; format: functional, cell-based; conditions: for IC25: time 6 day
Quadruplex DNA [13] = assay: Binding affinity to HER2 G4 quadruplex DNA (GGAGAAGGAGGAGGTGGAGGAGGAGGG) (unknown origin) assessed as equilibrium binding constant (Ka) by ITC analysis; format: nucleic-acid assay
MCF7 [14] = assay: Induction of DNA damage in human MCF7 cells assessed as increase in gamma-H2AX level at IC25 concentration incubated for 6 days by flow cytometric analysis; format: functional, cell-based; conditions: time 6.0 day
Quadruplex DNA [15] = assay: Binding affinity to c-Myc G4 quadruplex DNA (TGAGGGTGGGTAGGGTGGGTAA) (unknown origin) assessed as binding enthalpy by ITC analysis; format: nucleic-acid assay
Quadruplex DNA [16] = assay: Binding affinity to HER2 G4 quadruplex DNA (GGAGAAGGAGGAGGTGGAGGAGGAGGG) (unknown origin) assessed as Gibbs free energy by ITC analysis; format: nucleic-acid assay
MDA-MB-231 [17] = assay: Induction of cell cycle arrest in human MDA-MB-231 cells assessed as reduction in G1 phase at IC25 concentration incubated for 6 days by PI staining based flow cytometric analysis; format: functional; conditions: time 6.0 day
Quadruplex DNA [18] = assay: Binding affinity to c-Myc G4 quadruplex DNA (TGAGGGTGGGTAGGGTGGGTAA) (unknown origin) assessed as equilibrium binding constant (Ka) by ITC analysis; format: nucleic-acid assay
SK-BR-3 [19] = assay: Induction of cell cycle arrest in human SK-BR-3 cells assessed as accumulation of cells at G2/M phase at IC50 concentration incubated for 6 days by PI staining based flow cytometric analysis; format: functional; conditions: time 6.0 day
SK-BR-3 [20] = assay: Induction of cell cycle arrest in human SK-BR-3 cells assessed as accumulation of cells at G2/M phase at IC25 concentration incubated for 6 days by PI staining based flow cytometric analysis; format: functional; conditions: time 6.0 day
Quadruplex DNA [21] = assay: Binding affinity to HER2 G4 quadruplex DNA (GGAGAAGGAGGAGGTGGAGGAGGAGGG) (unknown origin) assessed as binding enthalpy by ITC analysis; format: nucleic-acid assay
MCF7 [22] = assay: Cytotoxicity against human MCF7 cells assessed as reduction in cell viability incubated for 6 days by SRB assay; format: functional, cell-based; conditions: for IC25: time 6 day
MCF7 [23] = assay: Downregulation of c-MYC protein expression in human MCF7 cells at IC25 concentration incubated for 6 days by Western blotting analysis; format: functional, cell-based; conditions: time 6.0 day
Quadruplex DNA [24] = assay: Stabilization of G4 quadruplex DNA (unknown origin) in human MCF7 cells at IC25 concentration incubated for 6 days by flow cytometric analysis; format: cell-based; conditions: time 6.0 day
SK-BR-3 [25] = assay: Induction of DNA damage in human SK-BR-3 cells assessed as increase in gamma-H2AX level at IC50 concentration incubated for 6 days by flow cytometric analysis; format: functional, cell-based; conditions: time 6.0 day
MCF7 [26] = assay: Induction of DNA damage in human MCF7 cells assessed as increase in gamma-H2AX level at IC50 concentration incubated for 6 days by flow cytometric analysis; format: functional, cell-based; conditions: time 6.0 day
Quadruplex DNA [27] = assay: Stabilization of G4 quadruplex DNA (unknown origin) in human SK-BR-3 cells assessed as increase in G4 motif at IC50 concentration incubated for 6 days by flow cytometric analysis; format: cell-based; conditions: time 6.0 day
SK-BR-3 [28] = assay: Induction of DNA damage in human SK-BR-3 cells assessed as increase in gamma-H2AX level at IC25 concentration incubated for 6 days by flow cytometric analysis; format: functional, cell-based; conditions: time 6.0 day
Quadruplex DNA [29] = assay: Binding affinity to c-Myc G4 quadruplex DNA (TGAGGGTGGGTAGGGTGGGTAA) (unknown origin) assessed as change in entropy by ITC analysis; format: nucleic-acid assay
MDA-MB-231 [30] = assay: Induction of cell cycle arrest in human MDA-MB-231 cells assessed as reduction in G1 phase at IC50 concentration incubated for 6 days by PI staining based flow cytometric analysis; format: functional; conditions: time 6.0 day
MDA-MB-231 [31] = assay: Induction of DNA damage in human MDA-MB-231 cells assessed as increase in gamma-H2AX level at IC50 concentration incubated for 6 days by flow cytometric analysis; format: functional, cell-based; conditions: time 6.0 day
MDA-MB-231 [32] = assay: Induction of DNA damage in human MDA-MB-231 cells assessed as increase in gamma-H2AX level incubated for 6 days by flow cytometric analysis; format: functional, cell-based; conditions: time 6.0 day
MDA-MB-231 [33] = assay: Induction of DNA damage in human MDA-MB-231 cells assessed as increase in gamma-H2AX level at IC25 concentration incubated for 6 days by flow cytometric analysis; format: functional, cell-based; conditions: time 6.0 day
MCF7 [34] = assay: Downregulation of c-MYC protein expression in human MCF7 cells at IC50 concentration incubated for 6 days by Western blotting analysis; format: functional, cell-based; conditions: time 6.0 day
MCF7 [35] = assay: Induction of cell cycle arrest in human MCF7 cells assessed as reduction in G1 phase at IC25 concentration incubated for 6 days by PI staining based flow cytometric analysis; format: functional; conditions: time 6.0 day
Quadruplex DNA [36] = assay: Stabilization of G4 quadruplex DNA (unknown origin) in human MCF7 cells at IC50 concentration incubated for 6 days by flow cytometric analysis; format: cell-based; conditions: time 6.0 day
MCF7 [37] = assay: Induction of cell cycle arrest in human MCF7 cells assessed as reduction in G1 phase at IC50 concentration incubated for 6 days by PI staining based flow cytometric analysis; format: functional; conditions: time 6.0 day
[38] = Homo sapiens, MDA-MB-231, 144 h

Cc1c(-c2ccccc2)oc2c(C(=O)OCCN3CCCCC3)cccc2c1=O showed a deltaTm1/2 (Quadruplex DNA [1]) of 4.5 °C, a deltaTm1/2 (Quadruplex RNA [2]) of 5.6 °C and a deltaTm1/2 (Quadruplex DNA [3]) of 4.9 °C. The Activity (MCF7 [4]) was “Active”, the Activity (SK-BR-3 [5]) was “Active” and the deltaTm1/2 (Quadruplex DNA [6]) was 9.8 °C. The deltaTm1/2 (Quadruplex DNA [7]) was -2.6 °C and the deltaTm1/2 (Quadruplex RNA [8]) was 8.5 °C.
Work on CC[C@@]1(O)C(=O)OCc2c1cc1n(c2=O)Cc2c-1nc1ccccc1c2CCNC(C)C [BELOTECAN] yielded a TdeltaS (Quadruplex DNA [9]) of 0.621 kcal/mol, a deltaG (Quadruplex DNA [10]) of -7.29 kcal/mol and an IC50 (SK-BR-3 [11]; Homo sapiens, SK-BR-3, 144 h) of 2 nM. The IC25 (SK-BR-3 [11]) was 0.9 10^-3microM, the IC50 (MDA-MB-231 [12]; [38]) was 2.4 nM and the IC25 (MDA-MB-231 [12]) was 1.4 10^-3microM. The deltaTm1/2 (Quadruplex DNA [1]) was 15.9 °C, the Ka (Quadruplex DNA [13]) was 2.3 10^5/M and the deltaTm1/2 (Quadruplex RNA [2]) was 6.6 °C. For the same compound, the deltaTm1/2 (Quadruplex DNA [3]) was 12.7 °C, the Activity (MCF7 [14]) was “Active; Slightly Lower Dna Damage Observed” and the deltaH (Quadruplex DNA [15]) was -5.5 kcal/mol. For the same compound, the deltaG (Quadruplex DNA [16]) was -7.31 kcal/mol, the Activity (MDA-MB-231 [17]) was “Active” and the Ka (Quadruplex DNA [18]) was 2.3 10^5/M. For the same compound, the deltaTm1/2 (Quadruplex DNA [6]) was 16.2 °C, the Activity (SK-BR-3 [19]) was “Active” and the Activity (SK-BR-3 [20]) was “Active”. It also gave a deltaTm1/2 (Quadruplex DNA [7]) of 7.5 °C, a deltaH (Quadruplex DNA [21]) of -6.69 kcal/mol and a deltaTm1/2 (Quadruplex RNA [8]) of 14.7 °C. The IC50 (MCF7 [22]; Homo sapiens, MCF7, 144 h) was 1.2 nM, the IC25 (MCF7 [22]) was 0.5 10^-3microM and the Activity (MCF7 [23]) was “Active”. For the same compound, the Activity (Quadruplex DNA [24]) was “Active”, the Activity (SK-BR-3 [25]) was “Active; Slightly Lower Dna Damage Observed” and the Activity (MCF7 [26]) was “Active; Slightly Lower Dna Damage Observed”. For the same compound, the Activity (Quadruplex DNA [27]) was “Active”, the Activity (SK-BR-3 [28]) was “Active; Slightly Lower Dna Damage Observed” and the TdeltaS (Quadruplex DNA [29]) was 1.79 kcal/mol.
For CCc1c2c(nc3ccc(OC(=O)N4CCC(N5CCCCC5)CC4)cc13)-c1cc3c(c(=O)n1C2)COC(=O)[C@]3(O)CC [IRINOTECAN], the TdeltaS (Quadruplex DNA [9]) was 1.89 kcal/mol, the deltaG (Quadruplex DNA [10]) was -7.07 kcal/mol and the IC50 (SK-BR-3 [11]; Homo sapiens, SK-BR-3, 144 h) was 500 nM. For the same compound, the IC25 (SK-BR-3 [11]; Homo sapiens, SK-BR-3, 144 h, read-out: IC25) was 360 nM, the IC50 (MDA-MB-231 [12]; [38]) was 1600 nM and the IC25 (MDA-MB-231 [12]; Homo sapiens, MDA-MB-231, 144 h, read-out: IC25) was 1100 nM. The deltaTm1/2 (Quadruplex DNA [1]) was 19 °C, the Activity (MDA-MB-231 [30]) was “Active” and the Activity (MDA-MB-231 [31]) was “Active”. For the same compound, the Ka (Quadruplex DNA [13]) was 2.2 10^5/M, the deltaTm1/2 (Quadruplex RNA [2]) was 6.6 °C and the deltaTm1/2 (Quadruplex DNA [3]) was 14.8 °C. The Activity (MDA-MB-231 [32]) was “Dose-dependent-effect”, the Activity (MDA-MB-231 [33]) was “Active” and the Activity (MCF7 [14]) was “Active; Slightly Lower Dna Damage Observed”. For the same compound, the Activity (MCF7 [34]) was “Active”, the deltaH (Quadruplex DNA [15]) was -1.86 kcal/mol and the deltaG (Quadruplex DNA [16]) was -7.29 kcal/mol. For the same compound, the Activity (MCF7 [35]) was “Active”, the Activity (MDA-MB-231 [17]) was “Active” and the Ka (Quadruplex DNA [18]) was 1.5 10^5/M. For the same compound, the deltaTm1/2 (Quadruplex DNA [6]) was 19.6 °C, the Activity (SK-BR-3 [19]) was “Active” and the Activity (SK-BR-3 [20]) was “Active”. The deltaTm1/2 (Quadruplex DNA [7]) was 8.7 °C, the deltaH (Quadruplex DNA [21]) was -5.4 kcal/mol and the deltaTm1/2 (Quadruplex RNA [8]) was over 20 °C. For the same compound, the IC50 (MCF7 [22]; Homo sapiens, MCF7, 144 h) was 480 nM, the IC25 (MCF7 [22]; Homo sapiens, MCF7, 144 h, read-out: IC25) was 280 nM and the Activity (Quadruplex DNA [36]) was “Active”. For the same compound, the Activity (Quadruplex DNA [24]) was “Active”, the Activity (SK-BR-3 [25]) was “Active; Slightly Lower Dna Damage Observed” and the Activity (MCF7 [37]) was “Active”. For the same compound, the Activity (MCF7 [26]) was “Active; Slightly Lower Dna Damage Observed”, the Activity (Quadruplex DNA [27]) was “Active” and the Activity (SK-BR-3 [28]) was “Active; Slightly Lower Dna Damage Observed”. It also gave a TdeltaS (Quadruplex DNA [29]) of 5.21 kcal/mol.
